Reference: patent US20020120098A1, “Enhanced stimulation of erythropoiesis” (priority 1996, published 2002)
Entries after “also recorded” stand apart in the source; their conditions may differ.

Experiments:
[1] = tested on: total erythroid progenitors (BFU-E+CFU-E); assay: Inhibition of succinylacetone (SA) toxicity to erythroid progenitors in CFA; assay type: cell-based, human; conditions: 0.5 mM SA; 100 μM hemin, 15.6 μM HAo or HEMOLINK, 250 μM FeCl3; ambient O2, 14 days
Protocol: The effect of the various additives on the inhibitory effect of succinylacetone (SA), a heme synthesis inhibitor, on erythroid progenitors was determined. Primary LDMNC were cultured in methyl cellulose as described in Example 1. Cord blood LDMN were plated in the presence of 1.0 mg/ml HAo (15.6 μM; n=12) or HEMOLINK™ (15.6 μM; n=5), 100 μM hemin (n=12), 250 μM FeCl3 (n=11) or no addition (n=12), in absence or presence of 0.5 mM SA. Cultures were maintained in a humidified chamber at 37° C., 5% CO2, and ambient oxygen tensions for 14 days.
Results are expressed as the number of total erythroid progenitors (BFU-E+CFU-E) present on plates treated with the various additives in the presence of SA relative to the number present on untreated plates (no SA or other addition). Significant differences in the presence of the respective additives compared to no addition (SA only; relative progenitor number=0.31) are as indicated: *p<0.001, **p<0.0001. Significant differences in the presence of the respective additives compared to no treatment (no SA; solid line at relative erythroid progenitor number=1.0) are as indicated: +p<0.05, ++p<0.001.

CFU-E = assay: Colony formation assay, adult peripheral blood LDMNC: CFU-E; assay type: cell-based, human; conditions: for fold increase in CFU-E, adult blood, 0.2 U/ml Epo: ~20% O2, compared to untreated controls (no addition) at 0.2 U/ml Epo; for increase in number of CFU-E progenitors, adult blood, ambient O2 (in words): 2 U/ml Epo
Protocol: Blood was collected with informed consent from the antecubital vein of healthy adult human volunteers into vacutainers containing 143 USP U/ml sodium heparin. Low density mononuclear cells (LDMNC) were isolated by centrifugation over a density gradient as described in Example 1. Plastic adherent cells were removed by an overnight incubation in a tissue culture flask and the non-adherent cells were placed directly in a CFA. Conditions for the CFA are similar to those described in Examples 1-4.
The mean fold increase in adult blood BFU-E, CFU-E and CFU-GM progenitor number produced by 1.0 mg/ml HAo (15.6 μM) or HEMOLINK™ (15.6 μM), 100 μM hemin or 250 μM FeCl3 is shown in FIG. 9 (n=3). Cultures were maintained at ambient oxygen tensions (˜20% O2) for 14 days. The fold increase in colonies is expressed relative to control cells treated only with the respective vehicles. […] The magnitude of this increase was greater for adult than cord blood LDMNC.
The mean fold increase in adult blood BFU-E, CFU-E and CFU-GM progenitor number at 5% O2 is shown in FIG. 10 with the same additives. Results are expressed relative to control cells treated only with the respective vehicles and cultured at ambient oxygen tensions (˜20% O2). Reduced oxygen tensions (5% O)2 enhanced the growth of BFU-E which was further increased by the addition of HAo, HEMOLINK™, hemin or FeCl3. All agents stimulated a similar increase in BFU-E number (˜9-11-fold) at 5% O2 compared to untreated control cells at ambient oxygen tensions.
Mean fold increase in adult blood BFU-E, CFU-E and CFU-GM progenitor number in the presence of reduced Epo (0.2 U/ml) (n=3) at 20% O2 is shown in FIG. 11 with and without (no addition) the additives used in FIG. 9. Results are expressed relative to control cells at 2 U/ml Epo treated only with the respective vehicles (solid line at fold expansion=1.0). […] As with cord blood, CFU-GM numbers were unaffected by reductions in Epo. The addition of HAo or HEMOLINK™ to CFAs containing 0.2 U/ml Epo stimulated ˜4.5- and ˜3.5-fold increases in BFU-E and CFU-E, respectively, compared to untreated controls (no addition), restoring the progenitor number to that obtained at 2 U/ml Epo. Hemin stimulated the greatest increase in BFU-E and CFU-E (˜9- and ˜6-fold, respectively) at 0.2 U/ml Epo versus the untreated controls (no addition). FeCl3 stimulated only a ˜2-fold increase in erythroid progenitor number at 0.2 U/ml Epo.
Mean fold increase in adult blood BFU-E, CFU-E and CFU-GM progenitor number at 5% O2 in the presence of reduced Epo (0.2 U/ml) (n=3) is shown in FIG. 12 with and without the additives used in FIG. 9. Results are expressed relative to control cells at 2 U/ml Epo treated only with the respective vehicles and cultured at ambient oxygen tensions (˜20% O2) for 14 days (solid line at fold expansion=1.0). The number of erythroid progenitors stimulated at 5% O2 and 0.2 U/ml Epo was similar to that obtained with 2.0 U/ml Epo maintained at ambient oxygen tensions (no addition).

BFU-E = assay: Colony formation assay (CFA), cord blood LDMNC: BFU-E colonies; assay type: cell-based, human; conditions: 5% O2, 0.2 U/ml Epo; 100 μM hemin, 1.0 mg/ml HAo or HEMOLINK; relative to controls at 2 U/ml Epo, ambient O2
[2] = Safety in animal experiments and Phase I clinical trial; assay type: in vivo; conditions: series of animal experiments and Phase I clinical trial in humans
Source text: A preferred embodiment of the present invention is the therapeutic application of hemoglobin to the treatment of anemia. HEMOLINK™ is a hemoglobin based oxygen carrier intended for use as a red blood cell substitute at doses that may exceed. 100 g. […] The present invention specifically proposes the repetitive administration of HEMOLINK™ in small doses to patients with anemia of any type. The anemias most amenable to hemoglobin therapy include: (1) anemias due to insufficient Epo production, including chronic renal failure, malaria, AIDS, rheumatoid arthritis, anemia of cancer, sickle cell anemia, prematurity and late anemia associated with Rhesus hemolytic disease of the newborn; (2) anemias due to inadequate iron incorporation, including iron-deficient anemias and anemias associated with chronic disease (e.g. infection, inflammation, trauma, or neoplastic diseases); and (3) anemias due to bone marrow failure that may be idiopathic or drug-induced.

Compound: C=CC1=C(C)C2=Cc3c(C=C)c(C)c4[n]3[Fe-2]35([Cl])[n]6c(c(C)c(CCC(=O)O)c6=CC6=[N+]3C(=C4)C(C)=C6CCC(=O)O)=CC1=[N+]25 [hemin]
- reversal of inhibitory effect of SA on erythroid progenitors (in words) [1]: able to completely overcome the SA inhibition of erythroid colonies; also recorded: able to overcome the inhibitory effect of SA
- fold increase in CFU-E, adult blood, 0.2 U/ml Epo (CFU-E): ~6 fold
- increase in number of CFU-E progenitors, adult blood, ambient O2 (in words) (CFU-E): slight increases
- fold increase in BFU-E at 0.2 U/ml Epo and 5% O2 (BFU-E): 4 fold

Compound: [Cl][Fe]([Cl])[Cl] [FeCl3]
- reversal of inhibitory effect of SA on erythroid progenitors (in words) [1]: less effective than lower concentrations of hemoglobin; also recorded: unable to overcome the inhibitory effect of SA

Compound: HEMOLINK™: chemically crosslinked hemoglobin prepared by treating human hemoglobin with a polyaldehyde (O-raffinose)
- reversal of inhibitory effect of SA on erythroid progenitors (in words) [1]: unable to fully restore erythroid progenitor numbers
- fold increase in CFU-E, adult blood, 0.2 U/ml Epo (CFU-E): ~3.5 fold
- increase in number of CFU-E progenitors, adult blood, ambient O2 (in words) (CFU-E): slight increases
- fold increase in BFU-E at 0.2 U/ml Epo and 5% O2 (BFU-E): 2.6 fold
- safety [2]: demonstrated to be safe

Compound: HAo: adult human hemoglobin obtained from red blood cells and purified by displacement chromatography; uncross linked product
- reversal of inhibitory effect of SA on erythroid progenitors (in words) [1]: partially able to overcome the inhibitory effect of SA; also recorded: could partially reverse the SA toxicity
- fold increase in CFU-E, adult blood, 0.2 U/ml Epo (CFU-E): ~3.5 fold
- increase in number of CFU-E progenitors, adult blood, ambient O2 (in words) (CFU-E): slight increases
- fold increase in BFU-E at 0.2 U/ml Epo and 5% O2 (BFU-E): 3.3 fold
